Our source for the Kd values is publication PMC12501277, “The deubiquitylase OTUB1 drives gemcitabine resistance in pancreatic cancer by enhancing pyrimidine metabolism through modulating DHODH mRNA stability” (Cell Death & Disease, 2025).

The test deals with T1, OTUB1 (Homo sapiens, UniProt Q96FW1).
T1 construct: Recombinant human OTUB1 protein (Abcam, ab157086)
Nature of the test: SPR (Biacore 8K, OTUB1 immobilized on CM5 chip). It is filed as binding. (In general: Surface plasmon resonance follows binding to a sensor surface in real time, without labels.)

T1 sequence (Q96FW1 2-271): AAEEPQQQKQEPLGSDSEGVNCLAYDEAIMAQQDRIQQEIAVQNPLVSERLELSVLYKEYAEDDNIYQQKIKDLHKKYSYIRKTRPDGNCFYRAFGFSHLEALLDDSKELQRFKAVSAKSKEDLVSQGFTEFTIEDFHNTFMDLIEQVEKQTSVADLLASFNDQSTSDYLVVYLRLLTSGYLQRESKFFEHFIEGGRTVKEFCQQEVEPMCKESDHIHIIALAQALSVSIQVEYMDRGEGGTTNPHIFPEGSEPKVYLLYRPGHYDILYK

The Kd is the free concentration of one partner at which half of the binding sites on the other are occupied at equilibrium, for simple one-to-one binding. Lower therefore signals a tighter complex. Turning to `COc1cc(NC(=O)CCN2CCC(OC(=O)Nc3ccccc3-c3ccccc3)CC2)c(Cl)cc1CNC[C@H](O)c1ccc(O)c2[nH]c(=O)ccc12` [Batefenterol], binding was put at a Kd of 23.5 µM. This counts as double-digit micromolar.
